Non-standard residues stand in square brackets, D forms with d. Residues, ends and D or L forms follow the SMILES beside them. *: point of attachment. FITC = O=C1OC2(c3ccc(O)cc3Oc3cc(O)ccc32)c2ccc(NC(=S)*)cc21; Nle = CCCC[C@H](N)C(=O)O; AEEA = NCCOCCOCC(=O)O; βAla = NCCC(=O)O

The text below walks through data of paper PMC8252567 (Angewandte Chemie (International Ed. in English), 2021).

The assay deals with T1, full length β-catenin (aa 1-781) (Homo sapiens, UniProt P35222).
T1 sequence (P35222 1-781): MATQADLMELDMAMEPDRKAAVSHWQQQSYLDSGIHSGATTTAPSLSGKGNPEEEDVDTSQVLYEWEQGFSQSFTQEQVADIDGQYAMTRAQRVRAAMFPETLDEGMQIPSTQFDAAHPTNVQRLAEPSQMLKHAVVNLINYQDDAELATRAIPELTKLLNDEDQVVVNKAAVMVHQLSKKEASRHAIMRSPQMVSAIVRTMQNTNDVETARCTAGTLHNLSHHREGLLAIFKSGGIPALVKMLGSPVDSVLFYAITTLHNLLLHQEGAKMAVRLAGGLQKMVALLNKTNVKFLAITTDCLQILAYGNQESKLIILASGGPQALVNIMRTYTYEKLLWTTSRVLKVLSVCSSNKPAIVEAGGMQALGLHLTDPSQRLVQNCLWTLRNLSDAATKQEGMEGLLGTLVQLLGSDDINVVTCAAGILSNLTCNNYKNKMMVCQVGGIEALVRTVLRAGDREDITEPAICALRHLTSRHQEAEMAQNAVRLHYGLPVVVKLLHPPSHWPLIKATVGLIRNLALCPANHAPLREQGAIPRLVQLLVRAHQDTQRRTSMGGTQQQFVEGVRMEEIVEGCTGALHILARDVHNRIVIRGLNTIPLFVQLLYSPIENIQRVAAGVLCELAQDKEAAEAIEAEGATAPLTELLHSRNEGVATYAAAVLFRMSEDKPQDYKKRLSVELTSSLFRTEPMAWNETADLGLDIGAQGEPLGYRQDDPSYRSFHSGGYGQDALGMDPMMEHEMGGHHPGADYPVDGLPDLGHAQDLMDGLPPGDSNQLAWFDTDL
The assay can be described thus: Direct fluorescence polarization. Type of assay: binding.

Regarding `CC(C)C[C@H](NC(=O)[C@H](CO)NC(=O)[C@H](CC(=O)O)NC(=O)COCCOCCNC(=S)Nc1ccc2c(c1)C(=O)OC21c2ccc(O)cc2Oc2cc(O)ccc21)C(=O)N[C@@H](CC(C)C)C(=O)N[C@H](C(=O)N[C@@H](Cc1ccccc1)C(=O)NCCC(=O)NCCC(=O)N[C@H](C(=O)N[C@H](C(=O)N[C@@H](CCCNC(=N)N)C(=O)N[C@@H](CC(N)=O)C(=O)N[C@@H](CC(=O)O)C(=O)N[C@H](C(N)=O)C(C)C)[C@@H](C)O)C(C)C)C(C)C` [peptide 11] ({FITC-AEEA}-DSLLVF[βAla][βAla]VTRNDV-NH2), the Kd was above 5 µM.
For `CCCC[C@H](NC(=O)[C@H](CC(C)C)NC(=O)[C@@H](NC(=O)[C@@H]1CCCN1C(=O)[C@H](C)NC(=O)[C@@H](NC(=O)[C@H](CC(=O)O)NC(=O)[C@H](CC(N)=O)NC(=O)[C@H](CCCNC(=N)N)NC(=O)[C@@H](NC(=O)[C@@H](NC(=O)CCNC(=O)CCNC(=O)[C@H](Cc1ccccc1)NC(=O)[C@@H](NC(=O)[C@H](CC(C)C)NC(=O)[C@H](CC(C)C)NC(=O)[C@H](CO)NC(=O)[C@H](CC(=O)O)NC(=O)COCCOCCNC(=S)Nc1ccc2c(c1)C(=O)OC21c2ccc(O)cc2Oc2cc(O)ccc21)C(C)C)C(C)C)[C@@H](C)O)C(C)C)[C@@H](C)O)C(=O)N[C@@H](CO)C(=O)N[C@H](C(=O)N1CCC[C@H]1C(=O)N[C@@H](CCC(N)=O)C(N)=O)C(C)C` [peptide 9] ({FITC-AEEA}-DSLLVF[βAla][βAla]VTRNDVAPTL[Nle]SVPQ-NH2), the equilibrium dissociation constant (Kd) is above 5 µM.
